Structures can show the parent of a compound that is named as a salt.
Tested on: engineered Str^r mutant E. coli ORN 208
Experiment: minimal inhibitory concentration (MIC) against streptomycin-resistant E. coli
Type: cell-based, Escherichia coli
Method: The diverse particle size affects inhibition and control. Silica nanoparticles were synthesized with an average of 80, 50 and 30 nm. Streptomycin was conjugated via photocoupling method through perfluorophenyl azide (PFPA) chemistry. The MIC for free streptomycin sulfate was recorded as a high 2.0 mg/mL for an engineered Str^r mutant E. coli ORN 208.
It is reasonable to hypothesize that the more nanoparticles internalize into the bacteria the greater the effect of the antibiotic. […] The comparative difference of the streptomycin that can exert MIC is shown in FIG. 9 for the engineered Str^r mutant E. coli ORN 208 .

[H]/N=C(/N)N[C@H]1[C@H](O)[C@@H](O)[C@H](O[C@@H]2O[C@@H](C)[C@](O)(C=O)[C@H]2O[C@@H]2O[C@@H](CO)[C@H](O)[C@@H](O)[C@@H]2NC)[C@@H](N/C(N)=N\[H])[C@@H]1O [free streptomycin sulfate, Streptomycin sulfate]
MIC (Escherichia coli, read-out: minimum inhibitory concentration (MIC)): 2000 µg/mL
minimum inhibitory concentration (MIC) (streptomycin resistant E. coli, MIC as streptomycin): 2000 µg/mL

Source: patent US20160045612A1, “FUNCTIONALIZED NANOPARTICLES FOR MEDICAL TREATMENTS” (UNIVERSITY OF MASSACHUSETTS, priority 2013, published 2016)
